The test system of assay [1] is hPSC-derived definitive endoderm (DE) cultures. As to the kind of experiment: Endoderm patterning of hPSC-derived DE cultures with growth factors/antagonists, qPCR and immunofluorescence. The settings on record: CHIR 2 μM, compared with recombinant WNT3A. The assay is classed as cell-based, human.
Procedure: Following DE induction, cells were treated for three days with growth factors/antagonists in RPMI 1640 with 2.0% dFBS. […] RA (2 μM; Sigma Aldrich) is added on the final day. Three-dimensional growth and antral specification. Posterior foregut spheroids were embedded in Matrigel (BD Biosciences) as previously described^10, 12 and subsequently grown in Advanced DMEM/F12 (Invitrogen) supplemented with N2 (Invitrogen), B27 (Invitrogen), L-glutamine, 10 μM HEPES, penicillin/streptomycin, and EGF (100 ng ml^−1; R&D Systems). For antral specification, RA and noggin were added for the first three days of three-dimensional growth. For endocrine cell specification, the EGF concentration is lowered to 10 ng ml^−1 at day 30.
The media was changed every day.
Assay [2] concerns hPSC-derived foregut spheroids. As to the kind of experiment: Fundus specification protocol: Wnt signaling at days 6-9 of gastric organoid differentiation, qPCR. Type of assay: cell-based, human. The following applies: CHIR 2 uM. How it is done:
Next, the function of Wnt signaling in the regulation of fundus-antrum patterning at days 6-9 of the gastric organoid differentiation protocol was tested. Addition of Wnt3a (at 100 ng/mL and 500 ng/mL) had no effect on spheroid gene expression, but it […] expression of the Wnt target gene Axin2. Thus, the effects of the small molecule CHIR99021 (CHIR; 2 uM) were tested. CHIR99021 stimulates Wnt signaling in a receptor-independent fashion.
(§1) Analysis was performed using the ΔΔCT method.
Background: In qPCR the cycle at which signal appears reflects the starting amount.

The subject of assay [3] is posterior foregut spheroids. As to the kind of experiment: Three-dimensional culture of posterior foregut spheroids with RA, qPCR of organ lineage markers. The assay is classed as cell-based, human. The settings on record: RA (2 μM) for 72 hours (days 6-9). How it is done:
(§2) Following DE induction, cells were treated for three days with growth factors/antagonists in RPMI 1640 with 2.0% dFBS. […] CHIR99021 is a small molecule that stimulates the Wnt signaling pathway. RA (2 μM; Sigma Aldrich) is added on the final day. Three-dimensional growth and antral specification. Posterior foregut spheroids were embedded in Matrigel (BD Biosciences) as previously described^10, 12 and subsequently grown in Advanced DMEM/F12 (Invitrogen) supplemented with N2 (Invitrogen), B27 (Invitrogen), L-glutamine, 10 μM HEPES, penicillin/streptomycin, and EGF (100 ng ml^−1; R&D Systems). For antral specification, RA and noggin were added for the first three days of three-dimensional growth. For endocrine cell specification, the EGF concentration is lowered to 10 ng ml^−1 at day 30.
The spheroids were transferred to a three-dimensional in vitro culture system as previously described5, 10, 12. Briefly, spheroids were collected, resuspended in 50 μl Matrigel (BD Biosciences), and plated in a three-dimensional droplet. After Matrigel was allowed to solidify for 10-15 minutes in a tissue culture incubator, spheroids were overlaid with gut media: Advanced DMEM/F12 with N2 (Invitrogen), B27 (Invitrogen), L-glutamine, 10 μM HEPES, penicillin/streptomycin, and EGF (100 ng ml^−1; R&D Systems). For the first three days, RA and Noggin were added to the gut media. […]

In assay [4] the test system is human antral gastric organoids (hGOs). As to the kind of experiment: Growth, morphogenesis and endocrine cell specification of human antral gastric organoids at different EGF concentrations. Type of assay: cell-based. The method, then:
as §2
The spheroids were transferred to a three-dimensional in vitro culture system as previously described5, 10, 12. Briefly, spheroids were collected, resuspended in 50 μl Matrigel (BD Biosciences), and plated in a three-dimensional droplet. After Matrigel was allowed to solidify for 10-15 minutes in a tissue culture incubator, spheroids were overlaid with gut media: Advanced DMEM/F12 with N2 (Invitrogen), B27 (Invitrogen), L-glutamine, 10 μM HEPES, penicillin/streptomycin, and EGF (100 ng ml^−1; R&D Systems). For the first three days, RA and Noggin were added to the gut media. Media was replaced every 3-4 days, as necessary. At day 20, organoids were collected and re-plated in fresh Matrigel at dilution of ˜1:12.
All tissues were fixed in 4% paraformaldehyde for either one hour at room temperature for frozen processing or overnight at 4° C. for paraffin processing. For frozen sections, tissue was protected in 30% sucrose overnight at 4° C., then embedded in OCT (Tissue-Tek), and cut at 10 μm. For paraffin sections, tissue was processed through a graded ethanol series, followed by xylene, and then embedded in paraffin and cut at 7 μm. Tissue culture cells were fixed for 15 minutes at room temperature and stained directly. For staining, frozen slides were thawed to room temperature and rehydrated in PBS, while paraffin slides were deparaffinized and subjected to antigen retrieval. Slides were blocked in 5% normal donkey serum (Jackson Immuno Research) in PBS plus 0.5% Triton-X for 30 minutes at room temperature. Primary antibodies (listed in Methods Table 1) were diluted in blocking buffer and incubated overnight at 4° C. Slides were washed in PBS and incubated with secondary antibody for one hour at room temperature, and coverslips were mounted using Fluoromount-G (Southern Biotech). Confocal images were captured on a Nikon A1Rsi inverted confocal microscope.
as §1

`Cc1c[nH]c(-c2cnc(NCCNc3ccc(C#N)cn3)nc2-c2ccc(Cl)cc2Cl)n1` [CHIR99021]: in assay [1], the “posteriorizing effects on endoderm” value is given as “same posteriorizing effects as recombinant WNT3A”. Also, in assay [2], the Pdx1 expression levels entry is “robust repression”; the “expression of fundus-specific markers IRX3 and IRX5” value is listed as “induced high levels”; the “expression of the intestinal marker Cdx2” value is listed as “did not induce”.
As to `CC1=C(/C=C/C(C)=C/C=C/C(C)=C/C(=O)O)C(C)(C)CCC1` [RA, retinoic acid], the “increase in PDX1 mRNA levels” value in assay [3] is greater than 100 fold.
For “EGF: growth factor EGF (R&D Systems) added to gut media”, the endocrine cell formation entry in assay [4] (EGF 10 ng ml^−1 from day 30-34) is reported as “abundance of endocrine cells”. The organoid diameter in assay [4] (EGF 100 ng mL^−1, over 3-4 weeks, from spheroids <100 μm) is given as 2-4 mm. Further, in assay [4] (EGF 100 ng ml^−1, 34-day hGOs), the “endocrine cells per organoid” value was < 1 endocrine cell per organoid. Also, in assay [4] (high EGF (100 ng ml^−1), qPCR at day 34), the “expression of proendocrine transcription factor NEUROG3” value is “inhibited”.

The values above are taken from patent US12241090B2, “Methods and systems for converting precursor cells into gastric tissues through directed differentiation” (CHILDREN'S HOSPITAL MEDICAL CENTER, priority 2014, dated 2025).
